Experimental data reported in patent US5008252A, “Process for inhibiting herpes simplex virus-specified thymidine kinase” (The University of North Carolina at Chapel Hill, priority 1987, dated 1991).
Entries after “also recorded” stand apart in the source; their conditions may differ.

Assays:
[1] = biological target: T1, human cytosolic dThd kinase (Homo sapiens, UniProt P04183); assay: dThd kinase assay in vitro; assay type: biochemical; conditions: purified enzyme; concentrations as high as 150 μM; 100 μM [14C]dThd
T1 construct: cellular cytosolic dThd kinase used to determine the Ki values was isolated from KB6B cells; endogenous in cells; host or cells: KB6B cells
T1 sequence (P04183 whole entry): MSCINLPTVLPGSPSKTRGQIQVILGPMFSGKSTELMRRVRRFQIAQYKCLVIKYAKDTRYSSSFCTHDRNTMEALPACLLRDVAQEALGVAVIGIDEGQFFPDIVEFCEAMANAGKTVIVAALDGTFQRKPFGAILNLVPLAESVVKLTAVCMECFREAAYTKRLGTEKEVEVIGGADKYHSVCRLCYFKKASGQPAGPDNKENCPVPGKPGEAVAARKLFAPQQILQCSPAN
From the text: (§1) Enzyme purification, enzyme assays, IC50 and Ki determinations. The cellular cytosolic dThd kinase used to determine the Ki values was isolated from KB6B cells. The HSV-1 and HSV-2dThd kinases were extracted from dThd kinase-deficient HeLa BU cells infected with HSV-1 (strain KOS) and HSV-2(strain 333), respectively. All of the dThd kinases were purified using affinity column chromatography procedures described by Lee, L. S. and Cheng, Y.-C. (J. Biol. Chem. 251:2600-2604 (1976)). The dThd kinase assay used was the same as that described by Cheng, Y.-C. & Ostrander, M. (J. Biol. Chem. 251:2605-2610 (1976)). Incubations were conducted at 37° C. for 60 min and the Ki and 50% […] concentration (IC50) values were determined as described by Cheng, Y.-C. and Prusoff, W. H. (Biochem. Pharmacol. 22:3099-3108 (1976)).

[2] = biological target: dThd kinase from HSV-1 (KOS)-infected HeLa BU cells (Human alphaherpesvirus 1 strain KOS, UniProt P17402); assay: Phosphate transfer assay (substrate test); assay type: biochemical, HSV-1 (strain KOS); conditions: 2 mM ATP
Chain of dThd kinase from HSV-1 (KOS)-infected HeLa BU cells (P17402 whole entry, looked up): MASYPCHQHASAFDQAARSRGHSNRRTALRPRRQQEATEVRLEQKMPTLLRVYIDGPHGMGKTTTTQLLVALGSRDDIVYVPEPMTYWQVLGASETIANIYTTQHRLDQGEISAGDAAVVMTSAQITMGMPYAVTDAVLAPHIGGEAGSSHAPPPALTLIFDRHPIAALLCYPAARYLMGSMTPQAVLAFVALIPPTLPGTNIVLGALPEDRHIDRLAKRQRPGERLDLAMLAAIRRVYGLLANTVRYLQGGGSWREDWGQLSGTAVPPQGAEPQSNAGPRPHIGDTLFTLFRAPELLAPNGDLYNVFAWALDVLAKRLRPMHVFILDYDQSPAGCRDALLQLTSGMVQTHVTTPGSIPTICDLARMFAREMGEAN

[3] = tested on: dTTP pool of HSV-1-infected HeLa S3 cells; assay: dNTP pool assay; assay type: cell-based; conditions: 100 μM, 12 h post infection
From the text: (§2) dNTP pool assay. dNTP pool measurements were done as described by Williams, M. W., Chang, C. H. and Cheng, Y.-C. (J. Biomed. Biophys. Meth. 1:153-1 62 (1979)). 5'-Et-dThd alone had no effect on the dNTP pool assay.

[4] = tested on: dTTP pools of HSV-1 (strain MDK)-infected HeLa BU cells; assay: dNTP pool assay; assay type: cell-based; conditions: 100 μM
From the text: as §2

[5] = tested on: dNTP pools of HSV-1-infected HeLa BU cells; assay: dNTP pool assay; assay type: cell-based
From the text: as §2

[6] = biological target: HSV-1 (strain KOS) dThd kinase-associated dTMP kinase (Human alphaherpesvirus 1 strain KOS, UniProt P17402); assay: dTMP (thymidylate) kinase assay, crude extracts; assay type: biochemical; conditions: HSV-1 KOS
Chain of HSV-1 (strain KOS) dThd kinase-associated dTMP kinase (P17402 whole entry, looked up): as above
Description: The thymidylate kinase and synthase assays were performed according to known procedures (see, Cheng, Y.-C. & Prusoff, W. H. (1974) Anal. Biochem. 60:545-550; Roberts, D. (1966) Biochemistry 5:3546-3548; Dolnick, B. J. & Cheng, Y. C. (1977) J. Biol. Chem. 252:7697-7703). dThd phosphorylase activity was determined by monitoring conversion of [^14 C]dThd to [14 C] thymine using high performance liquid chromatography (HPLC). Briefly, after a 30 min incubation of enzyme extract with radiolabeled dThd at 37° C., the reaction was stopped by addition of 25% trichloroacetic acid. After neutralization and centrifugation, the supernatants were loaded on to an Alltech Lichrosorb RP-18 column, and the column was eluted at a rate of 1 ml/min with 5 mM KH2 PO4 (pH 3.5)--10% methanol. Fractions of 1 ml were collected and radioactivity associated with dThd and thymine (as previously determined by retention times of authentic markers measured by their absorbance at 265 nm) was measured by scintillation counting. For evaluation of whether 5'-Et-dThd could serve substrate for dThd phosphorylase, reactions were carried out as described as above, except that 5'-Et-dThd was used instead of [^14 C]dThd; metabolites were then analyzed by HPLC as described above.

HSV-1 (KOS) dThd kinase = HSV-1 (KOS) dThd kinase (Human alphaherpesvirus 1 strain KOS, UniProt P17402); assay: dThd kinase assay in vitro; assay type: biochemical, HSV-1 (strain KOS)
Chain of HSV-1 (KOS) dThd kinase (P17402 whole entry, looked up): as above
From the text: as §1

[7] = biological target: HSV-1 SC16 dThd kinase in infected HeLa BU cells (Human herpesvirus 1, UniProt P06479); assay: Intracellular dThd kinase activity ([14C]dThd phosphorylation); assay type: cell-based, HSV-1 (strain SC16); conditions: intracellular [14C]dThd phosphorylation
Chain of HSV-1 SC16 dThd kinase in infected HeLa BU cells (P06479 whole entry, looked up): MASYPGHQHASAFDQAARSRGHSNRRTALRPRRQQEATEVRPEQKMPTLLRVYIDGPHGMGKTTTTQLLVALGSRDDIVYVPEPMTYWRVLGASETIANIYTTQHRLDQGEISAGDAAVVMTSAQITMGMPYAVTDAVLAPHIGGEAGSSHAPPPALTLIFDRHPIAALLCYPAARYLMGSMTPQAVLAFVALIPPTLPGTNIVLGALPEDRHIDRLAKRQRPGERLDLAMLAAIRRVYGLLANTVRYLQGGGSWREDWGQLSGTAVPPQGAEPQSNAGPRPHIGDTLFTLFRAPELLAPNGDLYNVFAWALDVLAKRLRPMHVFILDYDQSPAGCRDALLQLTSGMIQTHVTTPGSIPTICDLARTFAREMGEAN
Description: (§3) Intracellular dThd kinase activity. HeLa S3 or HeLa BU cells (1.5×10^6 /ml) were mock infected or infected with HSV-1 or HSV-2at 3 PFU/cell and incubated at 37° C. for a 1 h adsorption period. The medium was then removed, and the cells were washed with growth medium and resuspended at a cell density of 5×10^5 cells/ml in RPMI 1640 medium supplemented with kanamycin (100 μg/ml) and 5% dialyzed fetal bovine serum. At 9 h post-HSV infection, [14C]dThd (0.16 μCi/ml; 1 μM dThd) and different amounts of 5'-Et-dThd were added to the medium depending on experimental conditions. At the end of the labeling period (1 h), the cells were pelleted by centrifugation, washed with phosphate-buffered-saline (PBS) and resuspended in a small volume of PBS. Aliquots were then pipetted directly onto DE81 discs which were immediately washed in 100% EtOH. The DE81 discs were washed two additional times in 100% EtOH, and then radioactivity associated with the discs was measured by scintillation counting in 5 ml of aqueous counting fluid. In this manner, total intracellular dThd kinase activity was determined from the sum of radioactive acid soluble dThd nucleotides plus the acid insoluble dTMP associated with DNA, both precipitated directly on the DE81 discs.

[8] = tested on: HSV-2-infected HeLa S3 cells; assay: Intracellular dThd phosphorylation; assay type: cell-based; conditions: 25 μM, 9 h post infection, 1 h labeling
Description: as §3

HSV-1 SC16 dThd kinase = HSV-1 SC16 dThd kinase (Human herpesvirus 1, UniProt P06479); assay: dThd kinase assay in vitro, enzyme extracts; assay type: biochemical, HSV-1 (strain SC16); conditions: enzyme extracts of infected HeLa BU cells, 100 μM dThd
Chain of HSV-1 SC16 dThd kinase (P06479 whole entry, looked up): as above
Description: Virus stocks. The viruses used were HSV-1 (strains KOS, SC16, B3 and Tr7) and HSV-2(strain 333). dThd kinase mutants of HSV (SC16), B3 and Tr7, were isolated in the presence of (E)-5-(2-bromovinyl)-2'-deoxyuridine (BVDU) at 10 μg/ml and ACV at 1 μg/ml, respectively (Darby, G., Field, H.J. & Salisbury, S. A. (1982) Nature (London) 289:81-83; Field, H.J & Neden J. (1982) Antiviral Res. 2:243254).
as §1

In the case of 5'-ethynylthymidine [5'-Et-dThd], the “effect on human cytosolic dThd kinase” value [1] is reported as “does not exhibit inhibitory activity; also recorded: no effect; also recorded: No demonstrable effects”, the “substrate for virus dThd kinase (phosphorylation of the analogue)” value [2] is reported as “not phosphorylated; also recorded: did not serve as a substrate” and the “reduction of dTTP pool vs untreated infected control” value [3] is reported as 80%. For the same substance, the “inhibition of dTTP pools” value [4] was 45%, the “effect on dTTP pool of HSV-infected mammalian cells” value ([5]; 100 μM) was “significantly decreases” and the “reduction of dTTP pool vs untreated infected control” value ([5]; 100 μM, HSV-1-infected HeLa BU cells, 12 h post infection) was 95%. For the same substance, the “effect on dATP, dCTP and dGTP pools” value ([5]; 9 h HSV-1 (KOS)-infected HeLa BU cells) was “not significantly affected; also recorded: no significant effect”, the “IC50 of virus-associated dTMP kinase” value ([6]; 25 μM dTMP substrate) was 0.3 µM and the “IC50 of virus-associated dTMP kinase” value ([6]; 100 μM dTMP substrate) was 0.8 µM. The “inhibition of dThd kinase activity” value (HSV-1 (KOS) dThd kinase; 10 μM 5'-Et-dThd, purified enzyme, 100 μM [14C]dThd) was 50%, the Ki (HSV-1 (KOS) dThd kinase; HSV-1 KOS, affinity column-purified dThd kinase, ± standard deviation) was 0.09 µM and the IC50 (HSV-1 (KOS) dThd kinase; HSV-1 KOS, enzyme extracts of infected HeLa BU cells, 100 μM dThd) was 6 µM. For the same substance, the “type of inhibition (kinetic studies)” value (HSV-1 (KOS) dThd kinase; with respect to dThd) was “competitive inhibitor”, the IC50 [7] was 5 µM and the “dThd phosphorylating activity, % of untreated control” value [8] was 88%. The IC50 (HSV-1 SC16 dThd kinase) was 5 µM.
